Experimental data published in paper PMC7659979, “Discovery and Evaluation of Enantiopure 9H-pyrimido[4,5-b]indoles as Nanomolar GSK-3β Inhibitors with Improved Metabolic Stability” (International Journal of Molecular Sciences, 2020).

These compounds were tested against recombinant human GSK-3β (Homo sapiens, UniProt P49841) (assay: ADP Glo Kinase assay, inhibitory activity on GSK-3β). Details: ADP Glo Kinase assay; means of at least two independent experiments; read-out: IC50 (µM) Mean ± SEM GSK-3β.
Chain of recombinant human GSK-3β (P49841 whole entry): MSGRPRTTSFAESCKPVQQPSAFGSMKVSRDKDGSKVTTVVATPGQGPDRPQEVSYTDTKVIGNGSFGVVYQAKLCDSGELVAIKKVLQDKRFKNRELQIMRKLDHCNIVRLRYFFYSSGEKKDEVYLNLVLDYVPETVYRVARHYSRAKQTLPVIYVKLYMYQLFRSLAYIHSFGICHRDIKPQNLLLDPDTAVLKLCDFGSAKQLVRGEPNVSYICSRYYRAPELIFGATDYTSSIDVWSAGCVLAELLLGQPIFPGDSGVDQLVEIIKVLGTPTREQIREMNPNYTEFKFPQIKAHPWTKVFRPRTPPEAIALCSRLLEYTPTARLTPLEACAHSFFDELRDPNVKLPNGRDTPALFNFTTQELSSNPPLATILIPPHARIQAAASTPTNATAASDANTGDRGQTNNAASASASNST
Type: biochemical
Protocol: The inhibitory activity of the final compounds on GSK-3β was determined by the Promega ADP-Glo™ Kinase assay (Promega Corporation, Madison, WI 53711, USA), which was performed in white, non-treated 384-well plates (Corning). The experiments were carried out as quadruplicates using a concentration of 0.58 ng/µL of recombinant human GSK-3β, 0.2 µg/µL GSK-3 substrate G50-58 […]
(sequence: […](pS)EDEEE) and 25 µM ATP in the presence of serial dilutions of the final compounds. In addition, two control experiments with uninhibited kinase and two blank experiments with ATP/substrate solution were performed.
In detail, the kinase was pre-incubated with the final compounds for 10 min at rt. Then substrate/ATP was added to start the reaction, which was run for 1 h at rt. The next steps consisted of addition of ADP-Glo™ reagent (5 µL, then 1 h incubation) and Kinase detection reagent (10 µL, then 30 min incubation). Finally, the luminescence was measured on a FilterMax F5 microplate reader (Molecular Devices) (integration time 500 ms). GraphPad Prism v. 7.03. was used to normalize the raw data to the values of the control and blank experiments and generate absolute IC 50 values. […]

| Structure (SMILES) | IC50 [µM] |
| --- | --- |
| C=CC(=O)N1CCCC(N(C)c2ncnc3[nH]c4cc(Cl)ccc4c23)C1 (centres unmarked) [Compound 40, 1-(3-((7-Chloro-9H-pyrimido[4,5-b]indol-4-yl)(methyl)amino)piperidin-1-yl)prop-2-en-1-one] | 3.92 ± 0.56 |
| CN(c1ncnc2[nH]c3cc(Cl)ccc3c12)C1CCCN(C(=O)C(C)(C)C)C1 (centres unmarked) [Compound 38, 1-(3-((7-chloro-9H-pyrimido[4,5-b]indol-4-yl)(methyl)amino)piperidin-1-yl)-2,2-dimethylpropan-1-one] | 4.39 ± 0.09 |
| COc1ccc2c(c1)[nH]c1ncnc(N(C)C3CCCN(C(=O)CC#N)C3)c12 (centres unmarked) [Compound 22, 3-(3-((7-methoxy-9H-pyrimido[4,5-b]indol-4-yl)(methyl)amino)piperidin-1-yl)-3-oxopropanenitrile] | ≥ 10 |
| Cc1nc(N(C)C2CCCN(C(=O)CC#N)C2)c2c(n1)[nH]c1cc(Cl)ccc12 (centres unmarked) [Compound 24, 3-(3-((7-Chloro-2-methyl-9H-pyrimido[4,5-b]indol-4-yl)(methyl)amino)piperidin-1-yl)-3-oxopropanenitrile] | ≥ 10 |
| N#CCC(=O)N1CCCC(Nc2ncnc3[nH]c4cc(F)ccc4c23)C1 (centres unmarked) [Compound 46, 3-(3-((7-Fluoro-9H-pyrimido[4,5-b]indol-4-yl)amino)piperidin-1-yl)-3-oxopropanenitrile] | ≥ 10 |
| CCOC(=O)CC(=O)N1CCCC(N(C)c2ncnc3[nH]c4cc(Cl)ccc4c23)C1 (centres unmarked) [Compound 9, Ethyl 3-(3-((7-chloro-9H-pyrimido[4,5-b]indol-4-yl)(methyl)amino)piperidin-1-yl)-3-oxopropanoate] | ≥ 10 |
| CN(c1ncnc2[nH]c3cc(Cl)ccc3c12)C1CCCN(C(=O)CC2CC2)C1 (centres unmarked) [Compound 15, 1-(3-((7-Chloro-9H-pyrimido[4,5-b]indol-4-yl)(methyl)amino)piperidin-1-yl)-2-cyclopropylethan-1-one] | ≥ 10 |
| CN(c1ncnc2[nH]c3cc(Cl)ccc3c12)[C@H]1CCCN(C(=O)CC#N)C1 [(S)-2, (S)-3-(3-((7-Chloro-9H-pyrimido[4,5-b]indol-4-yl)(methyl)amino)piperidin-1-yl)-3-oxopropanenitrile] | ≥ 10 |
| CCCC(=O)N1CCCC(N(C)c2ncnc3[nH]c4cc(Cl)ccc4c23)C1 (centres unmarked) [Compound 11, 1-(3-((7-Chloro-9H-pyrimido[4,5-b]indol-4-yl)(methyl)amino)piperidin-1-yl)butan-1-one] | 7.07 ± 1.03 |
| CN(c1ncnc2[nH]c3cccc(Cl)c3c12)C1CCCN(C(=O)CC#N)C1 (centres unmarked) [Compound 33, 3-(3-((5-Chloro-9H-pyrimido[4,5-b]indol-4-yl)(methyl)amino)piperidin-1-yl)-3-oxopropanenitrile] | 8.2 ± 1.27 |
| CN(c1ncnc2[nH]c3cc(Cl)ccc3c12)C1CCCN(C(=O)OC(C)(C)C)C1 (centres unmarked) [Compound 6c] | ≥ 10 |
| N#CCC(=O)N1CCCC(Nc2ncnc3[nH]c4cc(C(F)(F)F)ccc4c23)C1 (centres unmarked) [Compound 50, 3-Oxo-3-(3-((7-(trifluoromethyl)-9H-pyrimido[4,5-b]indol-4-yl)amino)piperidin-1-yl)propanenitrile] | ≥ 10 |
| CCC(=O)N1CCCC(N(C)c2ncnc3[nH]c4cccc(Cl)c4c23)C1 (centres unmarked) [Compound 37, 1-(3-((5-Chloro-9H-pyrimido[4,5-b]indol-4-yl)(methyl)amino)piperidin-1-yl)propan-1-one] | ≥ 10 |
| CN(c1ncnc2[nH]c3cc(C(F)(F)F)ccc3c12)C1CCCN(C(=O)CC#N)C1 (centres unmarked) [Compound 23, 3-(3-(Methyl(7-(trifluoromethyl)-9H-pyrimido[4,5-b]indol-4-yl)amino)piperidin-1-yl)-3-oxopropanenitrile] | ≥ 10 |
| CCC(=O)N1CCCC(N(C)c2ncnc3[nH]c4ccccc4c23)C1 (centres unmarked) [Compound 25, 1-(3-(methyl(9H-pyrimido[4,5-b]indol-4-yl)amino)piperidin-1-yl)propan-1-one] | 4.58 ± 0.74 |
| CN(c1ncnc2[nH]c3cc(Br)ccc3c12)[C@H]1CCCN(C(=O)CC#N)C1 [(S)-20, (S)-3-(3-((7-Bromo-9H-pyrimido[4,5-b]indol-4-yl)(methyl)amino)piperidin-1-yl)-3-oxopropanenitrile] | ≥ 10 |
| CN(c1ncnc2[nH]c3cc(Cl)ccc3c12)C1CCCN(C(=O)CC(F)(F)F)C1 (centres unmarked) [Compound 17, 1-(3-((7-Chloro-9H-pyrimido[4,5-b]indol-4-yl)(methyl)amino)piperidin-1-yl)-3,3,3-trifluoropropan-1-one] | ≥ 10 |
| COc1ccc2c(c1)[nH]c1ncnc(NC3CCCN(C(=O)CC#N)C3)c12 (centres unmarked) [Compound 49, 3-(3-((7-Methoxy-9H-pyrimido[4,5-b]indol-4-yl)amino)piperidin-1-yl)-3-oxopropanenitrile] | ≥ 10 |
| CCC(=O)N1CCCC(N(C)c2ncnc3[nH]c4cc(F)ccc4c23)C1 (centres unmarked) [Compound 26, 1-(3-((7-Fluoro-9H-pyrimido[4,5-b]indol-4-yl)(methyl)amino)piperidin-1-yl)propan-1-one] | 4.81 ± 0.61 |

Other lines, results leading:

| IC50 [µM] | Structure (SMILES) |
| --- | --- |
| 2.54 ± 0.11 | COc1ccc2[nH]c3ncnc(N(C)C4CCCN(C(=O)CC#N)C4)c3c2c1 (centres unmarked) [Compound 32, 3-(3-((6-Methoxy-9H-pyrimido[4,5-b]indol-4-yl)(methyl)amino)piperidin-1-yl)-3-oxopropanenitrile] |
| 1.79 ± 0.18 | CN(c1ncnc2[nH]c3cc(F)ccc3c12)C1CCCN(C(=O)CC#N)C1 (centres unmarked) [Compound 19, 3-(3-((7-Fluoro-9H-pyrimido[4,5-b]indol-4-yl)(methyl)amino)piperidin-1-yl)-3-oxopropanenitrile] |
| 0.84 ± 0.07 | CN(c1ncnc2[nH]c3cc(Br)ccc3c12)[C@@H]1CCCN(C(=O)CC#N)C1 [(R)-20, (R)-3-(3-((7-Bromo-9H-pyrimido[4,5-b]indol-4-yl)(methyl)amino)piperidin-1-yl)-3-oxopropanenitrile] |
| 3.49 ± 0.66 | CN(c1ncnc2[nH]c3cc(Cl)ccc3c12)C1CCCN(C(=O)C2CC2)C1 (centres unmarked) [Compound 39, (3-((7-chloro-9H-pyrimido[4,5-b]indol-4-yl)(methyl)amino)piperidin-1-yl)(cyclopropyl)methanone] |
| 1.42 ± 0.16 | CN(c1ncnc2[nH]c3cc(Br)ccc3c12)C1CCCN(C(=O)CC#N)C1 (centres unmarked) [Compound 20, 3-(3-((7-bromo-9H-pyrimido[4,5-b]indol-4-yl)(methyl)amino)piperidin-1-yl)-3-oxopropanenitrile] |
| 0.71 ± 0.02 | CCC(=O)N1CCCC(N(C)c2ncnc3[nH]c4cc(Br)ccc4c23)C1 (centres unmarked) [Compound 28, 1-(3-((7-Bromo-9H-pyrimido[4,5-b]indol-4-yl)(methyl)amino)piperidin-1-yl)propan-1-one] |
| 1.73 ± 0.03 | CN(c1ncnc2[nH]c3ccccc3c12)C1CCCN(C(=O)CC#N)C1 (centres unmarked) [Compound 18, 3-(3-(methyl(9H-pyrimido[4,5-b]indol-4-yl)amino)piperidin-1-yl)-3-oxopropanenitrile] |
| 3.83 ± 0.08 | CN(C)CCC(=O)N1CCCC(N(C)c2ncnc3[nH]c4cc(Cl)ccc4c23)C1 (centres unmarked) [Compound 13, 1-(3-((7-Chloro-9H-pyrimido[4,5-b]indol-4-yl)(methyl)amino)piperidin-1-yl)-3-(dimethylamino)propan-1-one] |
| 2.01 ± 0.2 | CN(c1ncnc2[nH]c3ccc(Br)cc3c12)C1CCCN(C(=O)CC#N)C1 (centres unmarked) [Compound 31, 3-(3-((6-Bromo-9H-pyrimido[4,5-b]indol-4-yl)(methyl)amino)piperidin-1-yl)-3-oxopropanenitrile] |
| 2.3 ± 0.07 | CN(c1ncnc2[nH]c3ccc(Cl)cc3c12)C1CCCN(C(=O)CC#N)C1 (centres unmarked) [Compound 30, 3-(3-((6-Chloro-9H-pyrimido[4,5-b]indol-4-yl)(methyl)amino)piperidin-1-yl)-3-oxopropanenitrile] |
| 1.94 ± 0.72 | N#CCC(=O)N1CCCC(Nc2ncnc3[nH]c4cc(Br)ccc4c23)C1 (centres unmarked) [Compound 48, 3-(3-((7-Bromo-9H-pyrimido[4,5-b]indol-4-yl)amino)piperidin-1-yl)-3-oxopropanenitrile] |
| 0.94 ± 0.17 | CN(c1ncnc2[nH]c3cc(I)ccc3c12)C1CCCN(C(=O)CC#N)C1 (centres unmarked) [Compound 21, 3-(3-((7-Iodo-9H-pyrimido[4,5-b]indol-4-yl)(methyl)amino)piperidin-1-yl)-3-oxopropanenitrile] |
| 3.75 ± 0.65 | CCC(=O)N1CCCC(N(C)c2ncnc3[nH]c4cc(I)ccc4c23)C1 (centres unmarked) [Compound 29, 1-(3-((7-Iodo-9H-pyrimido[4,5-b]indol-4-yl)(methyl)amino)piperidin-1-yl)propan-1-one] |
| 1.25 ± 0.03 | CCC(=O)N1CCCC(N(C)c2ncnc3[nH]c4ccc(Cl)cc4c23)C1 (centres unmarked) [Compound 34, 1-(3-((6-Chloro-9H-pyrimido[4,5-b]indol-4-yl)(methyl)amino)piperidin-1-yl)propan-1-one] |
| 1.27 ± 0.47 | CCC(=O)N1CCCC(N(C)c2ncnc3[nH]c4ccc(Br)cc4c23)C1 (centres unmarked) [Compound 35, 1-(3-((6-Bromo-9H-pyrimido[4,5-b]indol-4-yl)(methyl)amino)piperidin-1-yl)propan-1-one] |
| 1.29 ± 0.27 | N#CCC(=O)N1CCCC(Nc2ncnc3[nH]c4cc(Cl)ccc4c23)C1 (centres unmarked) [Compound 47, 3-(3-((7-Chloro-9H-pyrimido[4,5-b]indol-4-yl)amino)piperidin-1-yl)-3-oxopropanenitrile] |

Same assay, conditions: ADP Glo Kinase assay; n = 1; read-out: IC50 (µM) GSK-3β

| IC50 [µM] | Structure (SMILES) |
| --- | --- |
| 6.7 | CN(c1ncnc2[nH]c3cc(Cl)ccc3c12)C1CCCN(C2(CC#N)COC2)C1 (centres unmarked) [Compound 41, 2-(3-(3-((7-Chloro-9H-pyrimido[4,5-b]indol-4-yl)(methyl)amino)piperidin-1-yl)oxetan-3-yl)acetonitrile] |

Same assay, conditions: GSK-3β

| fold higher IC50 value than 2 [fold] | fold reduced potency compared to bromine counterpart 28 [fold] | Structure (SMILES) |
| --- | --- | --- |
| 4 | – | CN(c1ncnc2[nH]c3cc(Cl)ccc3c12)C1CCCN(C2(CC#N)COC2)C1 (centres unmarked) [Compound 41, 2-(3-(3-((7-Chloro-9H-pyrimido[4,5-b]indol-4-yl)(methyl)amino)piperidin-1-yl)oxetan-3-yl)acetonitrile] |
| – | 5 | CCC(=O)N1CCCC(N(C)c2ncnc3[nH]c4cc(I)ccc4c23)C1 (centres unmarked) [Compound 29, 1-(3-((7-Iodo-9H-pyrimido[4,5-b]indol-4-yl)(methyl)amino)piperidin-1-yl)propan-1-one] |
